Results taken from PMC9454457 (Journal of Nuclear Medicine, 2022).
Where two headings read alike, the source gives them in different places.

Columns and labels:
[1] = In vitro metabolic stability in human plasma; format: in vitro ADME; conditions: 37°C, 72 ± 2 h, n = 4
Protocol: Metabolic stability in vitro was determined through a procedure published by Linder et al. that was slightly modified ([16]). Immediately after labeling, 200 μL of human plasma were added and the mixture was incubated at 37°C for 72 ± 2 h. Proteins were precipitated by treatment with ice-cold EtOH (150 μL) and ice-cold MeCN (450 μL), followed by centrifugation (13,000 rpm, 20 min). The supernatants were decanted and further centrifuged (13,000 rpm, 10 min) using a Costar Spin-X (Corning) centrifuge tube filter (0.45 μm). The filtrated plasma samples were analyzed using radio–RP-HPLC.
(§1) FIGURE 2. Preclinical data of ^nat/177Lu-RM2 (red), ^nat/177Lu-NeoBOMB1 (gray), ^nat/177Lu-AMTG (green), and ^nat/177Lu-AMTG2 (blue). (A) Affinity data on PC-3 and T-47D cells (1.5 × 10^5 cells/mL/well) using 3-^125I-D-Tyr^6-MJ9 (0.2 nM/well) as radiolabeled reference (2 h, room temperature, Hanks’ balanced salt solution plus 1% bovine serum albumin [v/v]). (B) GRPR-mediated internalization (0.25 pmol/well) on PC-3 cells as percentage of applied activity (incubation at 37°C for 1 h, Dulbecco modified Eagle medium/F-12 plus 5% bovine serum albumin [v/v], 1.5 × 10^5 cells/mL/well). Data were corrected for nonspecific binding (10^−3 M ^natLu-RM2). (C) Lipophilicity at pH 7.4 (logD7.4). (D) Metabolic stability in vitro in human plasma (left) (37°C, 72 ± 2 h; n = 4), and metabolic stability in vivo in murine plasma (middle) and murine urine (right) at 30 min after injection (n = 3). Data are expressed as mean ± SD.

[2] = In vivo metabolic stability in murine plasma and urine; set-up: species or system CB17-SCID mice; conditions: 30 min after injection, n = 3
Protocol: Approximately 30–40 MBq (1 nmol, 150 μL) of the ^177Lu-labeled compounds were injected into the tail vein of anesthetized CB17-SCID mice (n = 3). After euthanasia at 30 min after injection, blood and urine samples were collected. Blood proteins were precipitated by treatment with ice-cold MeCN (v/v = 1/1), followed by centrifugation (13,000 rpm, 20 min). The supernatants were decanted and further centrifuged (13,000 rpm, 10 min) using a Costar Spin-X centrifuge tube filter (0.45 μm). The filtrated plasma samples and the urine samples were analyzed using radio–RP-HPLC.
as §1

[3] = Biodistribution in PC-3 tumor-bearing CB17-SCID mice; format: in vivo; conditions: 24 h after injection; for tissue uptake at 24 h: CB17-SCID, mouse, intravenous, total radioactivity
Protocol: A detailed description of tumor inoculation is provided in the supplemental materials. Approximately 2–5 MBq (100 pmol, 150 μL) of the ^177Lu-labeled GRPR ligands were injected into the tail vein of anesthetized (2% isoflurane) PC-3 tumor–bearing mice (biodistribution, n = 4; imaging, n = 1).
For biodistribution studies, organs were removed, weighed, and measured in a γ-counter (Perkin Elmer) after euthanasia at 24 h after injection.
For all competition studies, 3.62 mg/kg (40 nmol) of ^natLu-RM2 (10^−3 M in phosphate-buffered saline) were coadministered.

[4] = adrenal, 100 pmol, 100 pmol, n = 4, read-out: Biodistribution, Adrenal
[5] = adrenal, 3.62 mg/kg, coinjection of natLu-RM2 3.62 mg/kg, n = 3, read-out: Biodistribution, Adrenal, competition study
[6] = blood, 100 pmol, 100 pmol, n = 4, read-out: Biodistribution, Blood
[7] = blood, 3.62 mg/kg, coinjection of natLu-RM2 3.62 mg/kg, n = 3, read-out: Biodistribution, Blood, competition study
[8] = bone, 100 pmol, 100 pmol, n = 4, read-out: Biodistribution, Bone
[9] = bone, 3.62 mg/kg, coinjection of natLu-RM2 3.62 mg/kg, n = 3, read-out: Biodistribution, Bone, competition study
[10] = heart, 100 pmol, 100 pmol, n = 4, read-out: Biodistribution, Heart
[11] = heart, 3.62 mg/kg, coinjection of natLu-RM2 3.62 mg/kg, n = 3, read-out: Biodistribution, Heart, competition study
[12] = intestine, 100 pmol, 100 pmol, n = 4, read-out: Biodistribution, Intestine
[13] = intestine, 3.62 mg/kg, coinjection of natLu-RM2 3.62 mg/kg, n = 3, read-out: Biodistribution, Intestine, competition study
[14] = kidney, 100 pmol, 100 pmol, n = 4, read-out: Biodistribution, Kidney
[15] = kidney, 3.62 mg/kg, coinjection of natLu-RM2 3.62 mg/kg, n = 3, read-out: Biodistribution, Kidney, competition study
[16] = liver, 100 pmol, 100 pmol, n = 4, read-out: Biodistribution, Liver
[17] = liver, 3.62 mg/kg, coinjection of natLu-RM2 3.62 mg/kg, n = 3, read-out: Biodistribution, Liver, competition study
[18] = lung, 100 pmol, 100 pmol, n = 4, read-out: Biodistribution, Lung
[19] = lung, 3.62 mg/kg, coinjection of natLu-RM2 3.62 mg/kg, n = 3, read-out: Biodistribution, Lung, competition study
[20] = muscle, 100 pmol, 100 pmol, n = 4, read-out: Biodistribution, Muscle
[21] = muscle, 3.62 mg/kg, coinjection of natLu-RM2 3.62 mg/kg, n = 3, read-out: Biodistribution, Muscle, competition study
[22] = pancreas, 100 pmol, 100 pmol, n = 4, read-out: Biodistribution, Pancreas
[23] = pancreas, 3.62 mg/kg, coinjection of natLu-RM2 3.62 mg/kg, n = 3, read-out: Biodistribution, Pancreas, competition study
[24] = spleen, 100 pmol, 100 pmol, n = 4, read-out: Biodistribution, Spleen
[25] = spleen, 3.62 mg/kg, coinjection of natLu-RM2 3.62 mg/kg, n = 3, read-out: Biodistribution, Spleen, competition study
[26] = stomach, 100 pmol, 100 pmol, n = 4, read-out: Biodistribution, Stomach
[27] = stomach, 3.62 mg/kg, coinjection of natLu-RM2 3.62 mg/kg, n = 3, read-out: Biodistribution, Stomach, competition study
[28] = tumor (PC-3), 100 pmol, PC-3 tumor, 100 pmol, n = 4, read-out: Biodistribution, Tumor
[29] = tumor (PC-3), 3.62 mg/kg, PC-3 tumor, coinjection of natLu-RM2 3.62 mg/kg, n = 3, read-out: Biodistribution, Tumor, competition study

Row | SMILES | Intact compound in human plasma in vitro [1] | Intact tracer in murine plasma in vivo [2] | Intact tracer in murine urine in vivo [2] | tissue uptake at 24 h [3, 4] [%ID/g] | tissue uptake at 24 h [3, 5] [%ID/g] | tissue uptake at 24 h [3, 6] [%ID/g] | tissue uptake at 24 h [3, 7] [%ID/g] | tissue uptake at 24 h [3, 8] [%ID/g] | tissue uptake at 24 h [3, 9] [%ID/g] | tissue uptake at 24 h [3, 10] [%ID/g] | tissue uptake at 24 h [3, 11] [%ID/g] | tissue uptake at 24 h [3, 12] [%ID/g] | tissue uptake at 24 h [3, 13] [%ID/g] | tissue uptake at 24 h [3, 14] [%ID/g] | tissue uptake at 24 h [3, 15] [%ID/g] | tissue uptake at 24 h [3, 16] [%ID/g] | tissue uptake at 24 h [3, 17] [%ID/g] | tissue uptake at 24 h [3, 18] [%ID/g] | tissue uptake at 24 h [3, 19] [%ID/g] | tissue uptake at 24 h [3, 20] [%ID/g] | further results
1 | CC(C)C[C@H](NC(=O)C[C@H](O)[C@H](CC(C)C)NC(=O)[C@H](Cc1c[nH]cn1)NC(=O)CNC(=O)[C@@H](NC(=O)[C@H](C)NC(=O)[C@](C)(Cc1c[nH]c2ccccc12)NC(=O)[C@H](CCC(N)=O)NC(=O)[C@@H](Cc1ccccc1)NC(=O)CN1CCC(NC(=O)CCC(C(=O)O)N2CCN(CC(=O)O)CCN(CC(=O)O)CCN(CC(=O)O)CC2)CC1)C(C)C)C(N)=O (stereo partly drawn) [^177Lu-AMTG2, ^177Lu-DOTAGA-α-Me-L-Trp^8-RM2, metal not drawn] | 66.2% ± 5.1% | 77.6% ± 3.1% | 61.6% ± 1.6% | 0.26 ± 0.14 | 0.03 ± 0.02 | 0.011 | 0.002 ± 0.001 | 0.22 ± 0.05 | 0.02 ± 0.01 | 0.03 ± 0.02 | 0.02 ± 0.01 | 0.3 ± 0.04 | 0.34 ± 0.35 | 1.2 to 1.9 | 1.63 ± 0.44 | 0.32 ± 0.14 | 0.74 ± 0.44 | 0.05 ± 0.01 | 1.18 ± 1.49 | 0.003 ± 0.003 | tissue uptake at 24 h [3, 21]: 0.003 ± 0.002 %ID/g; tissue uptake at 24 h [3, 22]: 0.95 ± 0.14 %ID/g; tissue uptake at 24 h [3, 23]: 0.07 ± 0.01 %ID/g; tissue uptake at 24 h [3, 24]: 0.15 ± 0.07 %ID/g; tissue uptake at 24 h [3, 25]: 1.06 ± 1.08 %ID/g; tissue uptake at 24 h [3, 26]: 0.12 ± 0.03 %ID/g; tissue uptake at 24 h [3, 27]: 0.04 ± 0.01 %ID/g; tissue uptake at 24 h [3, 28]: 7.97 ± 1.34 %ID/g; tissue uptake at 24 h [3, 29]: 0.36 ± 0.25 %ID/g
2 | CC(C)C[C@H](NC(=O)C[C@H](O)[C@H](CC(C)C)NC(=O)[C@H](Cc1c[nH]cn1)NC(=O)CNC(=O)[C@@H](NC(=O)[C@H](C)NC(=O)[C@](C)(Cc1c[nH]c2ccccc12)NC(=O)[C@H](CCC(N)=O)NC(=O)[C@@H](Cc1ccccc1)NC(=O)CN1CCC(NC(=O)CN2CCN(CC(=O)O)CCN(CC(=O)O)CCN(CC(=O)O)CC2)CC1)C(C)C)C(N)=O [^177Lu-AMTG, ^177Lu-α-Me-L-Trp^8-RM2, metal not drawn] | 77.7% ± 8.7% | 92.9% ± 0.7% | 68.2% ± 3.1% | 0.46 ± 0.22 | 0.09 ± 0.07 | 0.004 ± 0.001 | 0.003 | 0.05 ± 0.02 | 0.05 ± 0.03 | 0.02 | 0.02 ± 0.01 | 0.2 ± 0.1 | 0.27 ± 0.21 | 1.2 to 1.9 | 1.17 ± 0.26 | 0.14 ± 0.03 | 1.4 ± 0.86 | 0.04 ± 0.01 | 0.27 ± 0.15 | 0.005 ± 0.003 | Higher activity level in PC-3 tumor than for 177Lu-RM2 [3]: 35%; tissue uptake at 24 h [3, 21]: 0.003 ± 0.002 %ID/g; tissue uptake at 24 h [3, 22]: 0.56 ± 0.3 %ID/g; tissue uptake at 24 h [3, 23]: 0.05 ± 0.03 %ID/g; tissue uptake at 24 h [3, 24]: 0.1 ± 0.02 %ID/g; tissue uptake at 24 h [3, 25]: 2.97 ± 2.01 %ID/g; tissue uptake at 24 h [3, 26]: 0.1 ± 0.04 %ID/g; tissue uptake at 24 h [3, 27]: 0.04 ± 0.02 %ID/g; tissue uptake at 24 h [3, 28]: 11.5 %ID/g; tissue uptake at 24 h [3, 29]: 0.33 ± 0.2 %ID/g
